The values that follow come from patent EP3915971A1, “PHENYL-S(O)N-PHENYLAMIDINES AND THE USE THEREOF AS FUNGICIDES” (Bayer Aktiengesellschaft, priority 2020, dated 2021).

A short description of series [1]: LogP measurement by HPLC on reversed phase columns (EEC directive 79/831 Annex V.A8). It is filed as physicochemical. Particulars: reversed phase HPLC columns. As to the method:
Measurement of LogP values was performed according to EEC directive 79/831 Annex V.A8 by HPLC (High Performance Liquid Chromatography) on reversed phase columns with the following methods: • ^[a] LogP value is determined by measurement of LC-UV, in an acidic range, with 0.1% formic acid in water and acetonitrile as eluent (linear gradient from 10% acetonitrile to 95% acetonitrile). • ^[b] LogP value is determined by measurement of LC-UV, in a neutral range, with 0.001 molar ammonium acetate solution in water and acetonitrile as eluent (linear gradient from 10% acetonitrile to 95% acetonitrile). • ^[c] LogP value is determined by measurement of LC-UV, in an acidic range, with 0.1% phosphoric acid and acetonitrile as eluent (linear gradient from 10% acetonitrile to 95% acetonitrile).
If more than one LogP value is available within the same method, all the values are given and separated by "+". […]

Series [2] has as its system Phakospora pachyrhizi. In words: in vivo preventive test on Phakospora pachyrhizi (soybean rust). Particulars: Glycine max, 264 h; 500 ppm of active ingredient; preventive spray on young soybean plants, inoculation after 24 hours, evaluated 11 days after inoculation; 0% = control plants, 100% = no disease; read-out: efficacy. On the procedure: Example A: in vivo preventive test on Phakospora pachyrhizi (soybean rust) [table] The active ingredients were made soluble and homogenized in a mixture of Dimethyl sulfoxide/Acetone/ /Tween® 80 and then diluted in water to the desired concentration. The young plants of soybean were treated by spraying the active ingredient prepared as described above. Control plants were treated only with an aqueous solution of Acetone/Dimethyl sulfoxide/ Tween® 80. After 24 hours, the plants were contaminated by spraying the leaves with an aqueous suspension of Phakospora pachyrhizi spores. The contaminated soybean plants were incubated for 24 hours at 24°C and at 100% relative humidity and then for 10 days at 24°C and at 70-80% relative humidity. The test was evaluated 11 days after the inoculation. 0% means an efficacy which corresponds to that of the control plants while an efficacy of 100% means that no disease was observed.

Setting [3] is: method [a]: LC-UV, acidic range, 0.1% formic acid in water and acetonitrile as eluent (linear gradient 10% to 95% acetonitrile).

In turn, `CCN(C)C=Nc1cc(C)c(Sc2ccccc2Cl)cc1C` [Example I-005, N'-[4-[(2-chlorophenyl)thio]-2,5-dimethylphenyl]-N-ethyl-N-methylmethanimidamide] gave a chromatographic logP in series [1] (setting [3]) of 2.16. Further, the pest or weed control at 500 ppm in series [2] was no less than 70%.
In turn, `CCN(C)C=Nc1cc(C)c(Sc2ccccc2C)cc1Cl` [Example I-006, N'-[2-chloro-5-methyl-4-[(2-methylphenyl)thio]phenyl]-N-ethyl-N-methylmethanimidamide] gave a chromatographic logP in series [1] (setting [3]) of 1.77. Also, the pest or weed control at 500 ppm in series [2] is no less than 70%.
The corresponding values for `CCN(C)C=Nc1cc(C)c(Sc2ccccc2Cl)cc1Cl` [Example I-007, N'-[2-chloro-4-[(2-chlorophenyl)thio]-5-methylphenyl]-N-ethyl-N-methylmethanimidamide] are 1.83 and no less than 70%.
`CCN(C)C=Nc1cc(C)c(Sc2ccccc2F)cc1Cl` [Example I-008, N'-[2-chloro-4-[(2-fluorophenyl)thio]-5-methylphenyl]-N-ethyl-N-methylmethanimidamide] came in with a chromatographic logP in series [1] (setting [3]) of 1.6. For the same molecule, the pest or weed control at 500 ppm in series [2] was no less than 70%.
The corresponding values for `CCN(C)C=Nc1cc(C)c(S(=O)(=O)c2ccccc2Cl)cc1C` [Example I-020, N'-[4-(2-chlorophenyl)sulfonyl-2,5-dimethylphenyl]-N-ethyl-N-methylmethanimidamide] are 1.18 and no less than 70%.
Turning to `CCN(C)C=Nc1cc(F)c(Sc2ccccc2)cc1C` [Example I-021, N-ethyl-N'-(5-fluoro-2-methyl-4-phenylsulfanylphenyl)-N-methylmethanimidamide], the chromatographic logP in series [1] (setting [3]) turned out to be 1.53. For the same molecule, the pest or weed control at 500 ppm in series [2] was no less than 70%.
As to `CCN(C)C=Nc1cc(F)c(Sc2ccccc2C)cc1C` [Example I-022, N-ethyl-N'-[5-fluoro-2-methyl-4-[(2-methylphenyl)thio]phenyl]-N-methylmethanimidamide], in series [1] (setting [3]), the chromatographic logP was found to be 1.66. Further, the pest or weed control at 500 ppm in series [2] is no less than 70%.
Turning to `CCN(C)C=Nc1cc(C)c([S+]([O-])c2ccccc2C)cc1Br` (stereo not drawn) [Example I-063, N'-[2-bromo-5-methyl-4-(2-methylphenyl)sulfinylphenyl]-N-ethyl-N-methylmethanimidamide], the chromatographic logP in series [1] (setting [3]) stood at 1.15.
Still for that read-out and setting: in the case of `CCN(C)C=Nc1cc(Br)c([S+]([O-])c2ccccc2C#N)cc1C` (stereo not drawn) [Example I-064, N'-[5-bromo-4-(2-cyanophenyl)sulfinyl-2-methylphenyl]-N-ethyl-N-methylmethanimidamide] it was 0.93; in that of `CCN(C)C=Nc1cc(C)c(S(=O)(=O)c2ccccc2C)cc1Br` [Example I-065, N'-[2-bromo-5-methyl-4-(2-methylphenyl)sulfonylphenyl]-N-ethyl-N-methylmethanimidamide], 1.93.
Still for that read-out and setting: in the case of `CCN(C)C=Nc1cc(Br)c(S(=O)(=O)c2ccccc2C#N)cc1C` [Example I-070, N'-[5-bromo-4-(2-cyanophenyl)sulfonyl-2-methylphenyl]-N-ethyl-N-methylmethanimidamide] it was 1.34.
Same read-out and setting: in the case of `CCN(C)C=Nc1cc(C)c(S(=O)(=O)c2ccccc2F)cc1Br` [Example I-071, N'-[2-bromo-4-(2-fluorophenyl)sulfonyl-5-methylphenyl]-N-ethyl-N-methylmethanimidamide] it was 1.81; in that of `CCN(C)C=Nc1cc(C)c(S(=O)(=O)c2ccccc2C)cc1C1CC1` [Example I-072, N'-[2-cyclopropyl-5-methyl-4-(2-methylphenyl)sulfonylphenyl]-N-ethyl-N-methylmethanimidamide], 1.39.
In turn, `CCN(C)C=Nc1cc(C)c([S+]([O-])c2ccccc2C)cc1C(C)C` (stereo not drawn) [Example I-073, N-ethyl-N'-[2-isopropyl-5-methyl-4-(2-methylphenyl)sulfinylphenyl]-N-methylmethanimidamide] displayed a chromatographic logP in series [1] (setting [3]) of 1.18.
Same read-out and setting: in the case of `CCN(C)C=Nc1cc(C)c([S+]([O-])c2ccccc2C)cc1C1CC1` (stereo not drawn) [Example I-074, N'-[2-cyclopropyl-5-methyl-4-(2-methylphenyl)sulfinylphenyl]-N-ethyl-N-methylmethanimidamide] it was 1.07; in that of `CCN(C)C=Nc1cc(C)c([S+]([O-])c2ccccc2)cc1C1CC1` (stereo not drawn) [Example I-075, N'-[4-(benzenesulfinyl)-2-cyclopropyl-5-methylphenyl]-N-ethyl-N-methylmethanimidamide], 0.9; in that of `CCc1cc([S+]([O-])c2ccccc2F)c(C)cc1N=CN(C)CC` (stereo not drawn) [Example I-076, N-ethyl-N'-[2-ethyl-4-(2-fluorophenyl)sulfinyl-5-methylphenyl]-N-methylmethanimidamide], 1.
`CCN(C)C=Nc1cc(C)c([S+]([O-])c2ccccc2)cc1Br` (stereo not drawn) [Example I-079, N'-[4-(benzenesulfinyl)-2-bromo-5-methylphenyl]-N-ethyl-N-methylmethanimidamide] showed a chromatographic logP in series [1] (setting [3]) of 0.93.
Same read-out and setting: in the case of `CCN(C)C=Nc1cc(C)c(Sc2ccccc2)cc1Br` [Example I-080, N'-(2-bromo-5-methyl-4-phenylsulfanylphenyl)-N-ethyl-N-methylmethanimidamide] it was 1.75; in that of `CCc1cc([S+]([O-])c2ccccc2C)c(C)cc1N=CN(C)CC` (stereo not drawn) [Example I-081, N-ethyl-N'-[2-ethyl-5-methyl-4-(2-methylphenyl)sulfinylphenyl]-N-methylmethanimidamide], 1.07.
Still for that read-out and setting: next, `CCN(C)C=Nc1cc(C)c(Sc2ccccc2C)cc1C(F)(F)F` [Example I-083, N-ethyl-N-methyl-N'-[5-methyl-4-[(2-methylphenyl)thio]-2-(trifluoromethyl)phenyl]methanimidamide]: 2.62.
In series [1] (setting [3]), `CCc1cc(S(=O)(=O)c2ccccc2F)c(C)cc1N=CN(C)CC` [Example I-084, N-ethyl-N'-[2-ethyl-4-(2-fluorophenyl)sulfonyl-5-methylphenyl]-N-methylmethanimidamide] gave a chromatographic logP of 1.24.
In series [1] (setting [3]), `CCN(C)C=Nc1cc(C)c([S+]([O-])c2ccccc2F)cc1C(C)C` (stereo not drawn) [Example I-086, N-ethyl-N'-[4-(2-fluorophenyl)sulfinyl-2-isopropyl-5-methylphenyl]-N-methylmethanimidamide] returned a chromatographic logP of 1.15.
`CCN(C)C=Nc1cc(C)c([S+]([O-])c2ccccc2C)cc1C(F)(F)F` (stereo not drawn) [Example I-088, N-ethyl-N-methyl-N'-[5-methyl-4-(2-methylphenyl)sulfinyl-2-(trifluoromethyl)phenyl]methanimidamide] returned a chromatographic logP in series [1] (setting [3]) of 2.14.
Still for that read-out and setting: in the case of `CCN(C)C=Nc1cc(C)c([S+]([O-])c2ccccc2F)cc1C1CC1` (stereo not drawn) [Example I-089, N'-[2-cyclopropyl-4-(2-fluorophenyl)sulfinyl-5-methylphenyl]-N-ethyl-N-methylmethanimidamide] it was 1.04; in that of `CCN(C)C=Nc1cc(C)c(S(=O)(=O)c2ccccc2C)cc1C(F)(F)F` [Example I-092, N-ethyl-N-methyl-N'-[5-methyl-4-(2-methylphenyl)sulfonyl-2-(trifluoromethyl)phenyl]methanimidamide], 3.76; in that of `CCN(C)C=Nc1cc(C)c(S(=O)(=O)c2ccccc2F)cc1C(C)C` [Example I-093, N-ethyl-N'-[4-(2-fluorophenyl)sulfonyl-2-isopropyl-5-methylphenyl]-N-methylmethanimidamide], 1.45.
Still for that read-out and setting: in the case of `CCN(C)C=Nc1cc(C)c(S(=O)(=O)c2ccccc2C)cc1C(C)C` [Example I-094, N-ethyl-N'-[2-isopropyl-5-methyl-4-(2-methylphenyl)sulfonylphenyl]-N-methylmethanimidamide] it was 1.58.
Same read-out and setting: in the case of `CCN(C)C=Nc1cc(C)c(S(=O)(=O)c2ccccc2)cc1C1CC1` [Example I-095, N'-[4-(benzenesulfonyl)-2-cyclopropyl-5-methylphenyl]-N-ethyl-N-methylmethanimidamide] it was 1.24.
As for `CCN(C)C=Nc1cc(C)c(S(=O)(=O)c2ccccc2F)cc1C1CC1` [Example I-096, N'-[2-cyclopropyl-4-(2-fluorophenyl)sulfonyl-5-methylphenyl]-N-ethyl-N-methylmethanimidamide], the chromatographic logP in series [1] (setting [3]) amounted to 1.27.
`CCN(C)C=Nc1cc(C)c(Sc2ccccc2C#N)cc1C(F)(F)F` [Example I-104, N'-[4-[(2-cyanophenyl)thio]-5-methyl-2-(trifluoromethyl)phenyl]-N-ethyl-N-methylmethanimidamide]: the chromatographic logP in series [1] (setting [3]) was found to be 2.44; in series [1] (method [b]: LC-UV, neutral range, 0.001 molar ammonium acetate solution in water and acetonitrile as eluent (linear gradient 10% to 95% acetonitrile)), 4.64.
